Consider one compound from patent US8501237B2, “Formulations of water insoluble or poorly water soluble drugs in lipidated glycosaminoglycan particles and their use for diagnostics and therapy” (Tel-Aviv University Future Technology Development L.P., priority 2004, dated 2013).

Like-named read-outs stand apart in the source and are kept apart here.

Data set [1] has as its system B16F10.9 cells. Briefly: Cytotoxicity in vitro (MTT or SRB), B16F10.9. The class given is cell-based, mouse. The protocol: (§1) Cytotoxicity of paclitaxel and of gagomer-encapsulated paclitaxel was evaluated over a matrix of drug-gagomer formulations (see Examples 1, 2 and 3), cell lines and treatment protocols, for the drug concentration range spanning from 1 nM to 100 μM.
(§2) Twenty four hours prior to an experiment, cells of the desired line were seeded onto 96-well multiwell culture plates at densities in the range of 5×10^3 cells/well. The experiments were initiated on sub-confluent monolayers. Two protocols were used:
(§3) (I) Short protocol. The cells were incubated with the treatment media for 4 hours, at the end of which the treatment media was aspirated, the cells washed and incubated for 44 hours in drug-free serum-supplemented cell growth media. Termination was 48 hours from start.
(§4) (II) Long protocol: the cells were incubated in the treatment media for 48 hours. Upon termination, in either protocol, cell viability was determined in each well using either the MTT or the SRB assay method.
(§5) The rationale for the two protocols, the long and the short, is as follows: The long protocol is the traditional one used for in vitro comparisons of cytotoxicity among different drug formulations. The cells are incubated with the treatment formulations for periods usually within the 24-72 hour time span, and all formulations are incubated for the same time. […]

Data set [2] has as its system D122 cells. The data set is described as follows: Cytotoxicity in vitro (MTT or SRB), D122. The class given is cell-based. The following applies: Mus musculus. The protocol: as §1, §2, §3, §4, §5
In data set [3] the test system is C-26 cells. The data set is described as follows: Cytotoxicity in vitro (MTT or SRB), C-26. The conditions noted are these: Mus musculus. The format is cell-based. The protocol:
as §1, §2, §3, §4, §5

The test system of data set [4] is PANC-1 cells. The data set is described as follows: Cytotoxicity in vitro (MTT or SRB), PANC-1. The format is cell-based. The conditions noted are these: Homo sapiens. The protocol:
as §1, §2, §3, §4, §5

Data set [5] has as its system SNU-251 cells. Briefly: Cytotoxicity in vitro (MTT or SRB), SNU-251. The format is cell-based. The conditions noted are these: Homo sapiens. The procedure:
as §1, §2, §3, §4, §5

The test system of data set [6] is B16F10.9 cultures. Briefly: Cytotoxicity before and after sterilization (autoclaving) in B16F10.9 cultures. The conditions noted are these: Mus musculus. The class given is cell-based. The procedure: Aqueous suspensions of TX-GAG particles were prepared according to the scheme of FIG. 7, up to and including step 5. Aqueous suspensions of paclitaxel alone (i.e., free paclitaxel) were also prepared. Samples were set aside, from both the TX-GAG and the free paclitaxel, and the remainder of each system was subjected to the following sterilization process: 12 minutes of autoclaving at 120° C. A critical question of whether this sterilization process is feasible for the TX-GAG formulations, is retention of drug activity. Therefore, the original samples set aside prior to the sterilization process, as well as the samples that underwent the process, were tested for their cytotoxicity, in B16F10.9 cultures, as described in Example 7.

Setting [7] is: 4 hours treatment, then 44 hours drug-free media, read-out: IC50 short protocol.
The mark [8] stands for this setting: 48 hours incubation with treatment media, read-out: IC50 long protocol.

The term IC50 denotes the concentration at which inhibition is half-maximal. For `CC(=O)O[C@H]1C(=O)[C@@]2(C)[C@H]([C@H](OC(=O)c3ccccc3)[C@]3(O)C[C@H](OC(=O)[C@H](O)[C@@H](NC(=O)c4ccccc4)c4ccccc4)C(C)=C1C3(C)C)[C@]1(OC(C)=O)CO[C@@H]1C[C@@H]2O` [Free Paclitaxel, paclitaxel], the IC50 in data set [1] (Mus musculus, B16F10.9, ethanol as the lipid solvent, 4 hours treatment, then 44 hours drug-free media (Table 6), read-out: IC50 short protocol) is 1.8 µM; in data set [2] (setting [7]), 0.9 µM; in data set [2] (setting [8]), 0.25 µM; in data set [3] (C26, 4 hours treatment, then 44 hours drug-free media, read-out: IC50 short protocol), 3 µM; in data set [3] (C26, 48 hours incubation with treatment media, read-out: IC50 long protocol), 3.5 µM; in data set [4] (setting [7]), 0.3 µM. The IC50 in data set [4] (setting [8]) is 0.02 µM; in data set [5] (setting [7]), 0.6 µM; in data set [5] (setting [8]), 0.25 µM; in data set [6] (after sterilization: 12 minutes of autoclaving at 120° C. (FIG. 10)), about 0.3 µM; in data set [6] (before sterilization (FIG. 10)), about 0.3 µM. Besides, the “cytotoxic activity after heating of ethanolic solutions” value in data set [1] (ethanolic paclitaxel solutions heated at 40-70° C., same cytotoxicity assay) is “did not impair the drug's cytotoxic activity”.
